According to ChEMBL document CHEMBL1157109, “Differentiating and apoptotic dose-dependent effects in (-)-alpha-bisabolol-treated human endothelial cells” (2010):
The source made the active and inactive calls. No cut-off for these calls is given here.

Experiments:
[1] = tested on: HUVEC; test: Induction of apoptosis in HUVEC assessed as procaspase3 activation at 5 uM after 4 hrs by Western blot analysis; format: functional, cell-based; conditions: Homo sapiens
[2] = tested on: HUVEC; test: Cytotoxicity against HUVEC at 0.35 uM after 72 hrs by trypan blue dye exclusion test relative to control; format: functional, Homo sapiens
[3] = tested on: HUVEC; test: Induction of apoptosis in HUVEC assessed as procaspase3 activation at 5 uM after 24 hrs by Western blot analysis; format: functional, cell-based; conditions: Homo sapiens
[4] = tested on: HUVEC; test: Induction of apoptosis in HUVEC assessed as procaspase3 activation at 0.25 uM after 4 hrs by Western blot analysis; format: functional, cell-based; conditions: Homo sapiens
[5] = tested on: HUVEC; test: Cytotoxicity against HUVEC at 5 uM after 6 hrs by Trypan blue dye exclusion test; format: functional, Homo sapiens
[6] = tested on: HUVEC; test: Induction of apoptosis in HUVEC assessed as down-regulation of Bcl2 protein level at 5 uM after 0.5 hr by Western blot analysis; format: functional, cell-based; conditions: Homo sapiens
[7] = tested on: HUVEC; test: Antiangiogenic activity against HUVEC assessed as inhibition of capillary tube organization at 0.5 uM after 4 hrs; format: functional, cell-based; conditions: Homo sapiens
[8] = tested on: HUVEC; test: Induction of apoptosis in HUVEC assessed as effect on bax protein level after 1 hr by Western blot analysis; format: functional, cell-based; conditions: Homo sapiens
[9] = tested on: HUVEC; test: Induction of apoptosis in HUVEC assessed as cytochrome C release at 5 uM after 4 hrs by Western blot analysis; format: functional, cell-based; conditions: Homo sapiens
[10] = tested on: HUVEC; test: Cytotoxicity against HUVEC at 0.15 uM after 72 hrs by trypan blue dye exclusion test relative to control; format: functional, Homo sapiens
[11] = tested on: HUVEC; test: Cytotoxicity against HUVEC assessed as change in cell number at 25 uM after 72 hrs by trypan blue dye exclusion test; format: functional, cell-based; conditions: Homo sapiens
[12] = tested on: HUVEC; test: Cytotoxicity against HUVEC at 0.5 uM after 72 hrs by trypan blue dye exclusion test relative to control; format: functional, Homo sapiens
[13] = tested on: HUVEC; test: Antiangiogenic activity in HUVEC assessed as decrease in cell migration at 0.25 uM after 4 hrs in the presence of FGF2 relative to control; format: functional, cell-based; conditions: Homo sapiens
[14] = tested on: HUVEC; test: Angiogenic activity against HUVEC assessed as organization of cells in a capillary like structure at 0.25 uM after 4 hrs; format: functional, cell-based; conditions: Homo sapiens
[15] = tested on: HUVEC; test: Angiogenic activity against HUVEC assessed as organization of cells in a capillary like structure at 0.1 uM after 4 hrs; format: functional, cell-based; conditions: Homo sapiens
[16] = tested on: HUVEC; test: Induction of apoptosis in HUVEC assessed as cytochrome C release at 5 uM after 24 hrs by Western blot analysis; format: functional, cell-based; conditions: Homo sapiens
[17] = tested on: HUVEC; test: Cytotoxicity against HUVEC at 0.25 uM after 72 hrs by trypan blue dye exclusion test relative to control; format: functional, Homo sapiens

## CC(C)=CCC[C@](C)(O)[C@@H]1CC=C(C)CC1 [LEVOMENOL]
[1]
  Activity: Active
[2]
  Activity: 82%
[3]
  Activity: Active
[4]
  Activity: inactive
[5]
  Activity: >60%
[6]
  Activity: Active
[7]
  Activity: Active
[8]
  Activity: inactive
[9]
  Activity: Active
[10]
  Activity: 65%
[11]
  Activity: inactive
[12]
  Activity: 90%
[13]
  Activity: Active
[14]
  Activity: Active
[15]
  Activity: Active
[16]
  Activity: Active
[17]
  Activity: 78%
